# According to patent US20180318383A1, “PEPTIDE HAVING NEURONAL LOSS PREVENTION AND REGENERATION EFFECTS, AND COMPOSITION CONTAINING SAME” (GEMVAX & KAEL CO., LTD., priority 2015, published 2018):
# Experiments:
# NSCs [1] = experiment: Apoptosis of NSCs by DAPI and TUNEL staining; format: cell-based, rat; conditions: 20 μM Aβ25-35 + PEP1 up to 100 μM, 48 hours; p<0.05
# Method: NSCs were placed onto collagen-coated glass coverslips with a diameter of 13 mm, and then treated in the manner described below: 1) […]; 2) treated with only 20 μM Aβ25-30; or 3) treated with 20 μM Aβ25-30 and PEP1 at each concentration (1, 10, 50, or 100 μM) for 48 hours.
# The cells were washed with PBS and fixed with 4% paraformaldehyde for 20 minutes.
# TUNEL staining is a method used to confirm apoptosis. To observe an intact, condensed or fragmented nucleus, the cells that have been stained with TUNEL were treated with 100 μg/ml DAPI for 20 minutes to stain the nucleus, and then mounted on a glass slide to which a DAPI-mixed mounting medium was applied.
# The cells were observed under a fluorescence microscope and observed at excitation fluorescence wavelengths corresponding to DAPI and TUNEL.
# NSCs [2] = experiment: ATP assay; format: cell-based, rat; conditions: 20 μM Aβ25-35 + PEP1
# Excerpt: An ATP concentration was observed using an ATP determination kit and evaluated by an ELISA reader.
# NSCs [3] = experiment: Western blotting and immunostaining of intracellular proteins in NSCs; format: cell-based, rat
# Excerpt: For western blotting, the following antibodies were used: Ki67 (1:200 Abcam), P85a (1:1000, Millipore), pAKT (ser 473, 1:500, Cell Signaling Technology), GSK-3b (ser 9, 1:1000. Santa Cruz Biotechnology), HSTF-1 (1:1000, Santa Cruz Biotechnology), anti-B cell lymphoma-2 (1:1000, Cell Signaling Technology), HMGB-1 (1:500, Cell Signaling Technology), Bax (1:1000, Cell Signaling Technology), Cytosolic cytochrome C (1:200, Cell Signaling Technology), Cleaved caspase 3 (Asp175, 1: 1000, Cell Signaling Technology), c-Myc (1: 1000, Cell Signaling Technology), GFP (1: 1000, Cell Signaling Technology), hTERT (1:500, Santa Cruz Biotechnology), and rTERT (1:500, Santa Cruz Biotechnology).
# To confirm an intracellular signaling system, western blotting was performed after 48-hour treatment.
# To obtain the mitochondria and a cytoplasmic protein, mitochondria/intracellular protein isolation kits were used (Abcam). All blots were observed using an ECL solution, and observed images were analyzed using an analysis program.
# (§1) Immunostaining was carried out to confirm intracellular expression and locations. For immunostaining, the following antibodies were used: Ki67 (1:100 Abcam), rabbit anti-doublecortin (1 mg/mL; Abcam), rabbit anti-glial fibrillary acidic protein (GFAP) (1:5000; Abcam), rabbit anti-Tuj1 (1 mg/mL; Abcam), mouse anti-GalC (1 mg/mL; Millipore), and rabbit anti-HMGB1 (1:100; Cell Signaling Technology).
# Data was observed using an Olympus fluorescence microscope, and suitable fluorescence was used.
# NSCs [4] = experiment: NSC differentiation in bFGF-free N2 medium (immunostaining); format: cell-based, rat; conditions: Aβ25-35 increased GFAP-positive and decreased NeuN-positive cells
# Method: NSC differentiation was induced by changing the cell culture medium to a bFGF (10 ng/ml)-free N2 medium, and the medium was exchanged daily.
# as §1
# However, in a large number of GFAP-positive cells and NeuN-positive cells, such immune responses were increased after differentiation.
# NeuN = NeuN expression in 3XTg-AD mice (western blotting); format: in vivo; conditions: hippocampus and whole brain; s.c. three times a week for two months from age 12 months; vs control and Donepezil, same amount
# Method: To test the efficacy of PEP1 on AD, AD transgenic mice (3XTg-AD) were purchased from Jackson Laboratory. Genetic characteristics of the transgenic mice are as follows: B6; 129-Psen1tm1Mpm Tg(APPSwe, tauP301L)1Lfa/Mmjax. […] One week after mice were confirmed as pregnant, new mice were delivered and weaned for 3 weeks. Two weeks later, mature mice were obtained.
# During the preliminary breeding and the entire period of the experiment, a temperature was maintained at 23±2° C. and a relative humidity was maintained at 60±10%, and then the mice were raised under a 12-hour dark/light cycle. Experimental animals were divided into five groups, and each group included 10 animals. The divided experimental groups are as follows. […]
# The PEP1, physiological saline, donepezil and scramble peptide were subcutaneously injected at each concentration three times a week for two months from the age of 12 months, and then two months after the injection, cognitive/memory behavior tests (passive avoidance test and Y maze test) were performed to examine a degree of improvement in cognitive function and memory function. After the brain was extracted to separate the hippocampus, the amounts of amyloid beta in the hippocampus and the whole brain, and the amounts of an amyloid beta oligomer and NFT generated by tau hyperphosphorylation were determined by western blotting and immunostaining. […]
sequence,measurement,setting,value
"EARPALLTSRLRFIPK (homo sapiens) [PEP1, hTERT-derived peptide consisting of 16 amino acids, telomerase location [611-626]]",degree of apoptosis of NSCs,NSCs [1],significantly decreased
same,ATP level,NSCs [2],significantly restored
same,"apoptosis-associated proteins: Bax, cytoplasmic cytochrome C, cleaved caspase-3","NSCs [3]; 20 μM Aβ25-35 + PEP1, 48 hours",significantly decreased
same,ki67 (protein associated with proliferation ability),"NSCs [3]; 20 μM Aβ25-35 + PEP1, 48 hours",concentration-dependently increased
same,"proliferation-associated proteins: P85a PI3K, pAKT (Ser 473), phosphorylated GSK3-3b (Ser 9), HSTF-1, cytoplasmic HMGB-1","NSCs [3]; 20 μM Aβ25-35 + PEP1, 48 hours",recovered
same,HMGB1 expression in the cytoplasm,"NSCs [3]; immunostaining, 20 μM Aβ25-35 + PEP1 co-treatment",concentration-dependently recovered
same,NSC differentiation into GFAP-positive and NeuN-positive cells,NSCs [4],the opposite effect was observed
same,NeuN,NeuN,increased
